{"source": "ChEMBL document CHEMBL5360667", "about": "“Carboxylic Acid-Containing Indanyl Compounds as S1P5 Modulators for Treating Neurodegenerative Diseases” (ACS Med Chem Lett, 2023)", "data": [{"target": "Sphingosine 1-phosphate receptor 5 (Homo sapiens) (UniProt Q9H228)", "sequence (Q9H228 whole entry)": "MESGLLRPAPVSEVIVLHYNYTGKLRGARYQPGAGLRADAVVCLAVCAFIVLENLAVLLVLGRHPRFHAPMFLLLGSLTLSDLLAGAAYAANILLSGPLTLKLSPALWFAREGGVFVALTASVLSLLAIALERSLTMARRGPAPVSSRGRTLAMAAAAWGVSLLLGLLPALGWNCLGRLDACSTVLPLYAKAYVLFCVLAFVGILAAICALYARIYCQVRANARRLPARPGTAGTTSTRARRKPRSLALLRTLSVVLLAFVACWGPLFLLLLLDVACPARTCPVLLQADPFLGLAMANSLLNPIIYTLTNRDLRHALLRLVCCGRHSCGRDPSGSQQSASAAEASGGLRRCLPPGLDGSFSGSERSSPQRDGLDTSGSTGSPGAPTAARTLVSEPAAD", "experiment": "Agonist activity at recombinant S1P5 (unknown origin) expressed in CHO cell membranes assessed as increase in [35S]GTPgammaS binding preincubated for 30 mins followed by [35S]GTPgammaS addition and measured after 40 mins by microbeta scintillation counter analysis", "assay_type": "functional", "conditions": "Membrane, filed as agonist, time 70.0 min", "units": {"EC": "nM"}, "values": [{"smiles": "CC(C)Oc1ccc(COc2ccc3c(c2)CCC3N2CC(C(=O)O)C2)cc1C(F)(F)F", "note": "(stereo unspecified)", "EC": 1}, {"smiles": "O=C(O)C1CCN(C2CCc3c2ccc(OCc2c(Cl)cccc2Cl)c3F)CC1", "note": "(stereo unspecified)", "EC": "< 1"}, {"smiles": "O=C(O)C1CN(C2CCc3cc(OCc4cc(F)c(F)cc4F)ccc32)C1", "note": "(stereo unspecified)", "EC": 1}, {"smiles": "Cc1cc(OCc2c(Cl)cccc2Cl)cc2c1C(N1CCC(C(=O)O)CC1)CC2", "note": "(stereo unspecified)", "EC": "< 1"}, {"smiles": "O=C(O)C1CN(C2CCc3cc(OCc4ccc(C5CC5)c(C(F)(F)F)c4)ccc32)C1", "note": "(stereo unspecified)", "EC": 1}, {"smiles": "Cc1c(OCc2c(Cl)cccc2Cl)ccc2c1CCC2N1CCC(C(=O)O)CC1", "note": "(stereo unspecified)", "EC": "< 1"}]}]}
